This is an account of results in US20220088144A1, “SGLT-2 INHIBITORS OR IL-1R ANTAGONISTS FOR REDUCTION OF HYPOGLYCAEMIA AFTER BARIATRIC SURGERY” (UNIVERSITÄTSSPITAL BASEL, priority 2019, published 2022).

Test [1] relates to bulk monocytes. Briefly: RNA sequencing of monocytes isolated from treated patients. The arrangement: species or system human. The note with it: treatment compared to placebo. As for the experimental part: Following the inventors' hypothesis of an overactivation of the innate immune system in patients experiencing post-bariatric hypoglycemia, they assessed transcriptional changes in innate immune cells from the inventors' patient population using an unbiased RNA sequencing approach. Therefore, the inventors isolated monocytes from peripheral blood sampled immediately before and 60 minutes (i.e. before rescue glucose application when needed) after ingestion of the mixed-meal on all three treatment days.
(§1) Blood samples were taken before and 60 minutes after meal intake. Due to scheduling conflicts, samples from two patients could not be processed. These samples are thus assumed to be missing at random. Of note, samples from patient 3 (sleeve gastrectomy) had already been processed for RNA sequencing before the final change of protocol. Sequencing data obtained from this patient were thus kept for the purpose of these analyses. Peripheral blood mononuclear cells were obtained by Ficoll density gradient centrifugation (Lymphoprep Fresenius Kabi, Norway). For 9 out of 11 patients, an additional step was added after density gradient centrifugation to pre-enrich monocytes by negative selection with CD3 human MicroBeads (#130-050-101; Miltenyi Biotec). The obtained cellular monocyte fractions were then incubated with FC-Block for 15 minutes at room temperature [(Human FcR TruStain FcX (Biolegend) REF 422302, compatible with flow cytometric staining with anti-human CD16 (clone 3G8)], and subsequently labeled with the following antibodies: APC Mouse anti-Human CD3 [HIT3a alpha] (#555342; BD Biosciences), FITC Mouse Anti-Human CD19 [HIB19 RUO] (#560994; BD Biosciences), PE-Cy5 Mouse Anti-Human CD56 [B159 RUO] (#560842; BD Biosciences), PE Mouse Anti-Human CD16 [3G8 RUO] (#560995; BD Biosciences), APC-Cy7 Mouse Anti-Human CD14 [MφP-9 RUO] (#561709; BD Biosciences).
(§2) Cells were then further enriched into the three monocyte subsets by fluorescence-activated cell sorting on a BD FACS-Aria III. Classical monocytes were defined as: single, live, CD56− CD19−CD3−CD14+CD16−, Intermediate monocytes were defined as: single, live CD56−CD19− CD3−CD14+CD16+ and non-classical monocytes were defined as: single, live CD56−CD19− CD3−CD14−CD16+. Bulk monocytes were defined as a combination-gate of the three subsets. For a representative example of the gating strategy see FIG. 13.
Total RNA was extracted from 500'000 bulk monocytes, isolated as described above using the Nucleo Spin RNA II Kit (Machery Nagel). Integrity of isolated total RNA was assessed on a 2100 Bioanalyzer System (Agilent Technologies, USA) with the Agilent RNA 6000 Pico Kit as recommended by the manufacturer. RNA concentration was determined with the Quant-iT RiboGreen RNA Assay Kit (Thermo Fisher Scientific, USA).
Purification of mRNA by poly(A)-selection, mRNA fragmentation and cDNA library preparation for RNA-Seq were performed using the TruSeq Stranded mRNA HT Sample Preparation Kit (Illumina, USA) according to the manufacturer's protocol. Before sequencing, quality and quantity analysis of prepared cDNA libraries were done on a Fragment Analyzer System (Advanced Analytical Technologies, USA). cDNA libraries were sequenced as single-end reads with 125 cycles on a HiSeq2500 sequencing system (Illumina, USA) at the Genomics Facility Basel. Of note, 2 samples failed during library preparation.
Initial quality checks were performed with FastQC version 0.11.4 (www.bioinformatics.babraham.ac.uk/projects/fastqc/). Adaptor clipping and quality-trimming of sequences was performed using Trimmomatic version 0.36 (Bolger, A. M., Lohse, M., and Usadel, B. (2014). Bioinformatics 30, 2114-2120) and reads were aligned to the GRCh38 reference genome using the splice aware aligner STAR version 2.7.0 (Dobin, A., et al. (2013). Bioinformatics 29, 15-21). Count-tables were produced using HTSeq version 0.6.1 (Anders, S., Pyl, P. T., and Huber, W. (2015). Bioinformatics 31, 166-169). […]

Test [2] has as its system bulk monocytes. Description: Ex vivo cytokine-secretion assay of monocytes isolated from treated patients. The class given is cell-based, human. To be noted: for IL-1 beta in monocyte supernatant, estimate vs placebo: FIG. 9a; for IL-1 beta in monocyte supernatant, estimate vs placebo / IL-6 in monocyte supernatant, estimate vs placebo / TNFalpha in monocyte supernatant, estimate vs placebo: post-meal, no-hypo vs placebo, no-hypo, non-stimulated; for IL-6 in monocyte supernatant, estimate vs placebo: FIG. 9b; for TNFalpha in monocyte supernatant, estimate vs placebo: FIG. 9c; for postprandial increase in inflammatory cytokine secretion (IL-1β, IL-6, TNF-α) by monocytes: ex vivo culture 18 h, compared to placebo. How it is done:
In order to evaluate if changes at RNA level translated into protein expression, the inventors cultured monocytes isolated as described for RNA sequencing for a period of 18 h and measured pro-inflammatory cytokines in cell culture supernatants. […] In line with the reasoning, it has been shown that monocytes taken from an inherently pro-inflammatory milieu (septic shock), express increased mRNA levels of various inflammatory cytokines and chemokines (IL-1β, IL-1α, IL-6, CCL2), but release markedly lower levels of protein following ex vivo stimulation with LPS.
as §1, §2
Bulk monocytes obtained as described above were resuspended in fresh medium (RPMI-1640 (containing 11 mM Glucose, #31870-025; GIBCO) containing 200 U/ml penicillin, 200 U/ml streptomycin (Pen/Strep, #15140; GIBCO), 2 mM Glutamax (#35050061; GIBCO), 1 mM NaPyruvat (#11360-039; GIBCO), 1×MeM (#11140050; Sigma) and 10% FCS (#10500; Invitrogen)) at a density of 50'000 cells/well in a standard 96-well U-bottom plate. For each patient-visit sample, monocytes pre- and post-liquid mixed-meal were either left unstimulated (baseline condition) or activated with LPS (LPS-SM, #tlrl-smlps, Invivogen=activated condition) at a concentration of 5 ng/ml in duplicates. Thus, treated cells were then incubated for a period of 18 hours at 37° C. and 5% CO2 followed by harvesting of cell supernatants. Cytokine concentrations were determined in cell supernatants using the V-PLEX Human Proinflammatory Panel II (4-Plex) kit (Mesoscale Discovery) according to the manufacturer's instructions (Alternate Protocol 1, Extended Incubation). Two patients had to be excluded from analysis due to technical problems.

For `OC[C@H]1O[C@@H](c2ccc(Cl)c(Cc3ccc(O[C@H]4CCOC4)cc3)c2)[C@H](O)[C@@H](O)[C@@H]1O` [empagliflozin], in the test with bulk monocytes [1], the “number of downregulated genes in monocytes” value was determined as 0, the “number of upregulated genes in monocytes” value is on record as 14 and the “total genes differentially regulated in monocytes” value stood at 14. Besides, in the test with bulk monocytes [2], the “IL-1 beta in monocyte supernatant, estimate vs placebo” value is −3395.36; the “IL-6 in monocyte supernatant, estimate vs placebo” value was −18937.7; the “TNFalpha in monocyte supernatant, estimate vs placebo” value is listed as −453.496; the “postprandial increase in inflammatory cytokine secretion (IL-1β, IL-6, TNF-α) by monocytes” value is reported as “significantly inhibited”.

Consider “anakinra: CAS NO 143090-92-0; recombinant, non-glycosylated form of the human interleukin-1 receptor antagonist (IL-1 Ra), 153 amino acids”, for which, in the test on bulk monocytes [1], the “number of downregulated genes in monocytes” value came to 71, the “number of upregulated genes in monocytes” value is recorded as 163 and the “total genes differentially regulated in monocytes” value is reported as 234. Besides, in the test with bulk monocytes [2], the “IL-1 beta in monocyte supernatant, estimate vs placebo” value is recorded as −2426.73; the “IL-6 in monocyte supernatant, estimate vs placebo” value is on record as −17208.1; the “TNFalpha in monocyte supernatant, estimate vs placebo” value is −452.659; the “postprandial increase in inflammatory cytokine secretion (IL-1β, IL-6, TNF-α) by monocytes” value is reported as “significantly inhibited”.
